Assay results: ChEMBL document CHEMBL1159003, “Chemical investigation and anti-inflammatory activity of Vitex negundo seeds” (1992)

The molecules below were run on Rattus norvegicus (assay: Antiinflammatory activity in Sprague-Dawley rat assessed as inhibition of carrageenan-induced paw edema at 50 mg/kg, po after 3.5 hrs).
Assay type: functional

Row | Compound | inhibition in vivo at 50 mg/kg [%]
1 | CC1(C)CC[C@]2(C(=O)O)CC[C@]3(C)C(=CC[C@@H]4[C@@]5(C)C[C@H](O)[C@@H](O)C(C)(C)C5=CC[C@]43C)[C@@H]2C1 | 34.3
2 | CC1(C)CC[C@]2(C(=O)O)CC[C@]3(C)C(=CC[C@@H]4[C@@]5(C)C[C@@H](O)[C@@H](O)C(C)(C)C5=CC[C@]43C)[C@@H]2C1 | 18.7
3 | CC(C)Cc1ccc(C(C)C(=O)O)cc1 (stereo not drawn) [IBUPROFEN] | 63.2
